# From patent publication US12642886B2, “POSS viscoelastic hemostatic agents” (Hybrid Plastics, Incorporated, priority 2019, dated 2026)
# Experiment: Viscometric properties (oscillatory rheology, shear sweep)
# Assay type: physicochemical
# Protocol: The molecular weight of trisilanol i-octyl POSS® at 1184 g/mol, is generally equivalent to that of common silicone oligomers. In comparison to telechelic silanol polydimethylsiloxanes, trisilanol i-octylPOSS is unique in terms of its high viscosity (27 Pa·s at 24° C.) relative to the 4.3 wt % of silanol it contains. Telechelic silanol polydimethylsiloxanes and diphenyl-siloxane-dimethyl-siloxane copolymers with equivalent silanol contents are generally low viscosity fluids
# Oscillatory rheology was utilized to determine the viscometric characteristics of i-octylPOSS trisilanol versus mixtures containing solid hemostatic agents suspended in the carrier fluid, i-octylPOSS trisilanol. The solid hemostatic agents utilized for these tests were chitin and kaolin. Shear sweep measurements of viscosity at 37° C. over the range of 0.01-100 s^−1 were deemed adequate to assess reproducibility of the hemostat agent mixtures.
# It is non-Newtonian attributes are evidenced by a reduction of viscosity relative to shear rate. The shear thinning behavior is useful as it enables the hemostat to be syringable or pourable yet to remain in place once deposited onto a wound. Desirably, the viscosity of this hemostat can be controlled simply by increasing or decreasing the amount of kaolin incorporation.
# A similar viscosity test was performed using chitin as the solid hemostatic additive.
substance,measurement,setting,value
trisilanol hepta-isoOctyl POSS [i-octylPOSS trisilanol],viscosity,at 24° C.,27 Pa·s
same,rheological behaviour (viscosity relative to shear rate),shear sweep 0.01-100 s^−1 at 37° C.,Newtonian fluid
